Laboratory results published in PubChem BioAssay (NCI).
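Step 1: Grow cells in 96-well plates. Step 2: Expose to compound for 48 hours at 5 concentrations. Step 3: Interpolate endpoints linearly; if unreached, use highest concentration. At the TGI there is no net growth.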

What was measured:
Experiment in all cases: NCI anticancer screen, dose series, 48 h
HCC-2998 colon = test system: HCC-2998 colon
KM12 colon = test system: KM12 colon
ACHN renal = test system: ACHN renal
NCI-H226 lung = test system: NCI-H226 lung
UACC-62 melanoma = test system: UACC-62 melanoma
M14 melanoma = test system: M14 melanoma
SN12C renal = test system: SN12C renal
OVCAR-8 ovarian = test system: OVCAR-8 ovarian
MOLT-4 leukemia = test system: MOLT-4 leukemia
T-47D breast = test system: T-47D breast
A549 NSCLC = test system: A549 NSCLC
RXF 393 renal = test system: RXF 393 renal
786-0 renal = test system: 786-0 renal
UO-31 renal = test system: UO-31 renal
LOX IMVI melanoma = test system: LOX IMVI melanoma
SF-539 CNS = test system: SF-539 CNS
HS 578T breast = test system: HS 578T breast
SK-MEL-2 melanoma = test system: SK-MEL-2 melanoma
DU-145 prostate = test system: DU-145 prostate
U251 CNS = test system: U251 CNS
SR leukemia = test system: SR leukemia
RPMI-8226 leukemia = test system: RPMI-8226 leukemia
EKVX NSCLC = test system: EKVX NSCLC
BT-549 breast = test system: BT-549 breast
SNB-19 CNS = test system: SNB-19 CNS
MCF7 breast = test system: MCF7 breast
SW-620 colon = test system: SW-620 colon
NCI-H522 lung = test system: NCI-H522 lung
SK-MEL-5 melanoma = test system: SK-MEL-5 melanoma
OVCAR-3 ovarian = test system: OVCAR-3 ovarian
A498 renal = test system: A498 renal
SNB-75 CNS = test system: SNB-75 CNS
HCT-15 colon = test system: HCT-15 colon
MDA-MB-435 = test system: MDA-MB-435
OVCAR-5 ovarian = test system: OVCAR-5 ovarian
HOP-92 NSCLC = test system: HOP-92 NSCLC
CCRF-CEM leukemia = test system: CCRF-CEM leukemia
MDA-MB-231 breast = test system: MDA-MB-231 breast
SF-295 CNS = test system: SF-295 CNS
PC-3 prostate = test system: PC-3 prostate
HT29 colon = test system: HT29 colon
SF-268 CNS = test system: SF-268 CNS
CAKI-1 renal = test system: CAKI-1 renal
UACC-257 melanoma = test system: UACC-257 melanoma
SK-OV-3 ovarian = test system: SK-OV-3 ovarian
HL-60(TB) leukemia = test system: HL-60(TB) leukemia
HOP-62 NSCLC = test system: HOP-62 NSCLC
NCI-H23 lung = test system: NCI-H23 lung
MALME-3M melanoma = test system: MALME-3M melanoma
SK-MEL-28 melanoma = test system: SK-MEL-28 melanoma
HCT-116 colon = test system: HCT-116 colon
MDA-N = test system: MDA-N
TK-10 renal = test system: TK-10 renal
OVCAR-4 ovarian = test system: OVCAR-4 ovarian
COLO 205 colon = test system: COLO 205 colon
K-562 leukemia = test system: K-562 leukemia
NCI/ADR-RES ovarian = test system: NCI/ADR-RES ovarian
IGROV1 ovarian = test system: IGROV1 ovarian
NCI-H460 lung = test system: NCI-H460 lung

In the case of `COC1(OC)C2(Cl)C(Cl)=C(Cl)C1(Cl)C1COCC12` (centres undefined), the TGI (HCC-2998 colon) is reported as > 100 µM, the TGI (KM12 colon) is reported as > 100 µM and the TGI (ACHN renal) is reported as > 100 µM. For the same compound, the TGI (NCI-H226 lung) was > 100 µM, the TGI (UACC-62 melanoma) was > 100 µM and the TGI (M14 melanoma) was > 100 µM. The TGI (SN12C renal) was > 100 µM, the TGI (OVCAR-8 ovarian) was > 100 µM and the TGI (MOLT-4 leukemia) was > 100 µM. The TGI (T-47D breast) was > 100 µM, the TGI (A549 NSCLC) was > 100 µM and the TGI (RXF 393 renal) was > 100 µM. For the same compound, the TGI (786-0 renal) was > 100 µM, the TGI (UO-31 renal) was > 100 µM and the TGI (LOX IMVI melanoma) was > 100 µM. The TGI (SF-539 CNS) was > 100 µM, the TGI (HS 578T breast) was > 100 µM and the TGI (SK-MEL-2 melanoma) was > 100 µM. The TGI (DU-145 prostate) was > 100 µM, the TGI (U251 CNS) was > 75 µM and the TGI (SR leukemia) was > 100 µM. For the same compound, the TGI (RPMI-8226 leukemia) was > 100 µM, the TGI (EKVX NSCLC) was > 100 µM and the TGI (BT-549 breast) was > 100 µM. The TGI (SNB-19 CNS) was > 100 µM, the TGI (MCF7 breast) was > 100 µM and the TGI (SW-620 colon) was > 100 µM. The TGI (NCI-H522 lung) was > 100 µM, the TGI (SK-MEL-5 melanoma) was > 100 µM and the TGI (OVCAR-3 ovarian) was > 100 µM. The TGI (A498 renal) was > 100 µM, the TGI (SNB-75 CNS) was > 100 µM and the TGI (HCT-15 colon) was > 100 µM. For the same compound, the TGI (MDA-MB-435) was > 69.4 µM, the TGI (OVCAR-5 ovarian) was > 100 µM and the TGI (HOP-92 NSCLC) was > 100 µM. The TGI (CCRF-CEM leukemia) was > 100 µM, the TGI (MDA-MB-231 breast) was > 100 µM and the TGI (SF-295 CNS) was > 100 µM. The TGI (PC-3 prostate) was > 100 µM, the TGI (HT29 colon) was > 100 µM and the TGI (SF-268 CNS) was > 100 µM. For the same compound, the TGI (CAKI-1 renal) was > 100 µM, the TGI (UACC-257 melanoma) was > 100 µM and the TGI (SK-OV-3 ovarian) was > 100 µM. The TGI (HL-60(TB) leukemia) was > 100 µM, the TGI (HOP-62 NSCLC) was > 100 µM and the TGI (NCI-H23 lung) was > 71.2 µM. The TGI (MALME-3M melanoma) was > 100 µM, the TGI (SK-MEL-28 melanoma) was > 55.4 µM and the TGI (HCT-116 colon) was > 100 µM. The TGI (MDA-N) was > 100 µM, the TGI (TK-10 renal) was > 72.3 µM and the TGI (OVCAR-4 ovarian) was > 100 µM. For the same compound, the TGI (COLO 205 colon) was > 100 µM, the TGI (K-562 leukemia) was > 100 µM and the TGI (NCI/ADR-RES ovarian) was > 100 µM. For the same compound, the TGI (IGROV1 ovarian) was > 100 µM and the TGI (NCI-H460 lung) was > 100 µM.
